Results published in patent US8846654B2, “Therapeutic applications in the cardiovascular field of quinazolinedione derivatives” (Sanofi, priority 2009, dated 2014).

What follows are compounds tested on PDE8 (assay: PDE8 enzymatic assay equivalent to that described for PDE7). Settings: not given.
Format: biochemical
Description: 2) Measurement of the Inhibitory Activity of the Compounds in Accordance with the Invention with Regard to PDE8
`N#Cc1cc(Cn2c(=O)c3cc(OC(CF)CF)ccc3n(C3CCN(C=O)CC3)c2=O)ccc1-c1ccccc1` [No. 294, 4-({6-[2-fluoro-1-(fluoromethyl)ethoxy]-1-(1-formylpiperidin-4-yl)-2,4-dioxo-1,4-dihydroquinazolin-3(2H)-yl}methyl)biphenyl-2-carbonitrile] gave an IC50 of 15 nM. With `COc1ccc(Cn2c(=O)c3cc(OC(CF)CF)ccc3n(C3CCN(C=O)CC3)c2=O)cc1OC` [No. 11, 4-[3-(3,4-dimethoxybenzyl)-6-[2-fluoro-1-(fluoromethyl)ethoxy]-2,4-dioxo-3,4-dihydroquinazolin-1(2H)-yl]piperidine-1-carbaldehyde] the IC50 was 140 nM.

Each compound was assayed on Male C57B6 mice (assay: Murine model of myocardial infarction resulting from an ischemia-reperfusion episode). Settings: 3 mg/kg intravenously 5 minutes before reperfusion; 45 min coronary occlusion, 24 hours of reperfusion; compared with the vehicle.
Format: in vivo
Procedure: 3) Evaluation of the Compounds in Accordance with the Invention in a Murine Model of Myocardial Infarction Resulting from an Ischemia-Reperfusion Episode
Male C57B6 mice (23-26 g) are anaesthetized (ketamine 1 g/kg+xylazine 0.02 g/kg, IP) and placed under respiratory assistance before being subjected to a thoracotomy targeted at exposing the heart. Cardiac ischemia is then induced by the transient ligation of the left coronary artery. After 45 minutes of coronary occlusion, the ligature is removed in order to make possible reperfusion of the region rendered ischemic. After closing the thorax and restoring the pleural cavity, the animals are placed in a revival cage.
Test compounds Nos 11, 56, 233 and 309 are administered 5 minutes before reperfusion intravenously at a dose of 3 mg/kg and compared with the vehicle (7.5% Cremophor RH40+22.5% glycofurol in a physiological serum solution).
After 24 hours of cardiac reperfusion, the animals are again anaesthetized (ketamine 1 g/kg+xylazine 0.02 g/kg, IP) before intravenously receiving sodium nitroprusside (1 mg/ml at 1 ml/min for 4 minutes) in order to dilate the coronary vasculature. The left coronary artery is religatured and a solution of Evans blue (3%, 200 to 300 μl) is injected by carotid retroperfusion in order to determine the region at ventricular risk. The heart is then removed and immersed in a saturated KCl solution in order to stop it in diastole. Transverse sections of 1 mm are produced, incubated in triphenyltetrazolium chloride (1% in PBS) at 37° C. for 2 minutes and then placed in formaldehyde (4%) overnight. The tetrazolium salt makes it possible to visualize the viable region within the region at risk. The surface area of the infarction with respect to the region at risk is determined by image analysis.
With `COc1cc(Cn2c(=O)c3cc(OC(CF)CF)ccc3n(C3CCN(C=O)CC3)c2=O)ccc1OC1CCCC1` [No. 56, 4-{3-[4-(cyclopentyloxy)-3-methoxybenzyl]-6-[2-fluoro-1-(fluoromethyl)ethoxy]-2,4-dioxo-3,4-dihydroquinazolin-1(2H)-yl}piperidine-1-carbaldehyde] the “reduction of the size of the infarction, expressed with respect to the region at risk” value (from here on “reduction of the size of the infarction”) was 33%. With `COc1cc(Cn2c(=O)c3cc(OC(CF)CF)c(F)cc3n(C3CCN(C=O)CC3)c2=O)ccc1OCC1CC1` [No. 309, 4-{3-[4-(cyclopropylmethoxy)-3-methoxybenzyl]-7-fluoro-6-[2-fluoro-1-(fluoromethyl)ethoxy]-2,4-dioxo-3,4-dihydroquinazolin-1(2H)-yl}piperidine-1-carbaldehyde] the “reduction of the size of the infarction” value was 32%. For `COc1ccc(Cn2c(=O)c3cc(OC(CF)CF)c(F)cc3n(C3CCN(C=O)CC3)c2=O)cc1OC` [No. 233, 4-[3-(3,4-dimethoxybenzyl)-7-fluoro-6-[2-fluoro-1-(fluoromethyl)ethoxy]-2,4-dioxo-3,4-dihydroquinazolin-1(2H)-yl]piperidine-1-carbaldehyde], the “reduction of the size of the infarction” value was 40%. `COc1ccc(Cn2c(=O)c3cc(OC(CF)CF)ccc3n(C3CCN(C=O)CC3)c2=O)cc1OC` [No. 11, 4-[3-(3,4-dimethoxybenzyl)-6-[2-fluoro-1-(fluoromethyl)ethoxy]-2,4-dioxo-3,4-dihydroquinazolin-1(2H)-yl]piperidine-1-carbaldehyde] was tested, and the “reduction of the size of the infarction” value was 43%.
